We go through ten molecules from patent US6372740B1, “2-aryl-8-oxodihydropurine derivative, process for the producing the same, medicinal compositions containing the same, and intermediates thereof” (Dainippon Pharmaceutical Co., Ltd., priority 1997, dated 2002).

One series addresses T1, BZω3 receptor (Rattus norvegicus, UniProt P16257).
T1 construct: from tissue; host or cells: rat (Wistar) kidney membrane fraction
The experiment in a line: BZω3 (peripheral) benzodiazepine receptor binding assay, [3H] 4'-chlorodiazepam (Ro 5-4864). As to conditions: rat kidney membrane, [3H] Ro 5-4864 0.5 nM, 150 minutes at 0° C.; read-out: ω3 IC50. Here is the method:
Experiment 1: Central (ω1,ω2) and Peripheral (ω3) Benzodiazepine Receptor Binding Assays
BZω1 and BZω2 receptor binding assays and the preparation of receptor membrane fractions therefor were carried out according to the method of Stephens, D. N. et al. [cf., J. Pharmacol. Exp. Ther., 253, 334-343 (1990)], and BZω3 receptor binding assay and the preparation of receptor membrane fraction therefor were done according to the method of Schoemaker, H. [cf, J. Pharmacol. Exp. Ther., 225, 61-69 (1983)] each with slight modification.
Receptor membrane fractions for ω1, ω2 and ω3 were prepared from the cerebellum (ω1), spinal cord (ω2) or kidney (ω3) in 7-8 week old male rats of Wistar strain, respectively, by the procedure described below.
After the cerebellum or spinal cord was homogenized with 20 volumes of ice-cold 50 mM Tris-citrate buffer (pH 7.1), the homogenate was centrifuged for 15 minutes at 40,000 g. The pellet obtained was washed 4 times by the same procedure, and frozen and stored for 24 hours at −60° C. The resulting pellet, after being thawed, washed with the buffer and centrifuged, was suspended in the buffer I for the binding assay (50 mM Tris-HCl buffer containing 120 mM NaCl, 5 mM KCl, 2 mM CaCl2 and 1 mM MgCl2; pH 7.4) and the suspension thus obtained (containing 1 g wet tissue/40 ml) was used for the BZω1 and BZω2receptor binding assays. On the other hand, the kidney was homogenized with 20 volumes of the ice-cold buffer II for the binding assay (50 mM Na-K phosphate buffer containing 100 mM NaCl; pH 7.4), and the mixture was filtered through 4 sheets of gauze, and centrifuged for 20 minutes at 40,000 g. The pellet obtained was suspended in the buffer II and the suspension (containing 1 g wet tissue/100 ml) was used for the binding assay as BZω3 receptor membrane source.
[^3H] Flumazenil (Ro 15-1788) (final concentration: 0.3 nM for ω1, and 1 nM for ω2) and flunitrazepam (final concentration: 10 μM) were used for the BZω1 or BZω2 receptor binding assays as the isotope-labeled and unlabeled ligands, respectively. For the BZω3 receptor binding assay, [^3H] 4′-chlorodiazepam (7-chloro-1,3-dihydro-1-methyl-5-(4-chlorophenyl)-2H-1,4-diazepin-2-one) (Ro 5-4864) (final concentration: 0.5 nM) and diazepam (final concentration: 100 μM) were used as the isotope-labeled and unlabeled ligands, respectively. Incubation was performed for 30 minutes at 37° C. in the BZω1 or BZω2 receptor binding assays, and for 150 minutes at 0° C. in the BZω3 receptor binding assay. The BZω1 or BZω2 receptor binding assays were carried out in the presence of bicuculline (final concentration: 100 μM).
The binding assay was performed by the following procedure. After adding each test compound at certain known concentrations, a [^3H] ligand, and the buffer I or II to each test tube, each assay was started by addition of membrane preparation (total volume of 1 ml). After incubation, the assay was terminated by filtration with suction through a Whatman GF/B glass fiber filter using a cell harvester (Brandel, USA). The filters were rapidly washed 3 times with 5 ml of ice-cold 50 mM Tris-HCl buffer (pH 7.7) for ω1 and ω2, or the buffer II for ω3, and transferred to scintillation vials containing 10 ml liquid scintillation cocktail (ACS-II, Amersham, USA). After being allowed to stand for a specific period, retained radioactivity was counted by a liquid scintillation spectrometer. Specific binding of [^3H] ligands was calculated as the difference between amounts of radioactivity bound in the presence and absence of excess unlabeled ligands. The concentration of the test compounds causing 50% inhibition of specific binding of the [3H] ligand (IC50) was determined by probit analysis.

Series [1] concerns mice (stay in light compartment). The experiment in a line: Light and dark box test (anti-anxiety effect). The format is in vivo. As to conditions: Mus musculus, po, 0.5 h, male Std-ddY mice, 30 minutes before test, Dunnett test 5%, read-out: Anti-anxiety effect MED (minimum effective dose). The text has this: Experiment 2: Light and Dark Box Test (Anti-anxiety Effect)
Anti-anxiety effect of test compounds was examined in a box with light and dark compartments according to the method of Crawley, J. and Goodwin, F. K. [cf., Pharmacol. Biochem. Behav., 13, 167-170 (1980)] with slight modification.
Light and dark box test is a useful, simple and handy method for behaviorally and pharmacologically examining anti-anxiety effect of the drugs, by utilizing the habit of rodents such as mice and rats, etc. which prefer to stay in a dark place, and regarding as positive drug effect the increase of the relative stay of the animals in the light compartment which is an uncomfortable place for the animals. A number of drugs such as cholecystokinin B type receptor antagonists and benzodiazepine drugs, show positive effect in this test.
Light and dark box test was carried out using the test box device (35×17×15 cm) which comprises: a light compartment (20×17×15 cm) consisting of transparent acrylic plates and highly illuminated by an incandescent lamp (1,700 lux); a dark compartment (15×17×15 cm) being made of black acrylic plates connected to the light compartment; and at the boundary of compartments, an opening (4.4×5.0 cm) in which mice can go through freely between two compartments.
Male mice of Std-ddY strain weighing 25-30 g were used in a group of 10. Each trial was started by placing a mouse in the center of the light compartment 30 minutes after oral administration of a test compound, and the time spent by the mouse in the light compartment during a 5 minute observation period was measured, and the rate of the stay of mice in the light compartment to the whole time spent in the experiment was calculated (rate of light compartment stay, %).
The anti-anxiety effect of the test compound was represented by the minimum effective dose (MED) at which the increasing rate of the relative stay in the light compartment was regarded as statistically significant (Dunnett test, significance level: 5%). 4.

The test system of the next series is mice (lethality). The experiment in a line: Acute toxicity. The format is in vivo, mouse. As to conditions: male Std-ddY mice, oral 2000 mg/kg, observed for 7 days. Here is the method: Experiment 4: Acute Toxicity
Male mice of Std-ddY strain weighing 25-30 g were used in a group of 10 animals for examining on the compound of Example 1. A test compound was suspended in 0.5% tragacanth and administered orally to the mice at a dose of 2000 mg/kg.

The subject of series [2] is mice (isoniazid-induced clonic convulsion). The experiment in a line: Isoniazid-induced clonic convulsion test (anti-convulsant effect). It counts as in vivo, mouse. As to conditions: male Std-ddY mice, oral, 30 minutes before isoniazid 200 mg/kg s.c.; dose prolonging onset time by 25%. The text has this:
Experiment 3: Isoniazid-induced Clonic Convulsion Test (Anti-convulsant Effect)
Isoniazid inhibits glutamate decarboxylase that catalyzes GABA biosynthesis, decrease brain GABA levels, and induces clonic convulsion. According to the method of Auta, J. et al. [cf., J. Pharmacol. Exp. Ther., 265, 649-656 (1993)] with slight modification, antagonistic effects of the test compounds on isoniazid-induced clonic convulsion were examined. […] Such drugs are BZ receptor agonists represented by diazepam, neurosteroids such as allopregnanolone, allotetrahydro-deoxycorticosterone (THDOC) and BZω3 receptor agonists, which enhance the synthesis of neurosteroids.
Male mice of Std-ddY strain weighing 22-24 g were used in a group of 6. Thirty minutes after oral administration of the test compounds, mice were injected with isoniazid (200 mg/kg) subcutaneously, and immediately thereafter, the mice were placed individually in plastic observation cages. The onset time of clonic convulsion was measured (cut-off time: 90 minutes). The latency in the control group was about 40 minutes.
Anti-isoniazid effect of the test compounds was expressed by the dose, which prolonged the onset time by 25% compared to that in the vehicle group (ED25). The ED25 value was calculated according to the Probit method.

Consider `CCN(C(=O)Cn1c(=O)n(C)c2nc(-c3ccccc3)ncc21)c1ccccc1` [Example 1, N-ethyl-8,9-dihydro-9-methyl-8-oxo-2-phenyl-N-phenyl-7H-purin-7-acetamide], for which the IC50 (in general, the concentration needed to halve the response being measured) at BZω3 receptor worked out at 2 nM. The minimal effective dose in series [1] was 1 to 3 µg/kg. For the same molecule, the lethality result in the series with mice (lethality) was “no lethality”.

Regarding `CCCN(CCC)C(=O)Cn1c(=O)n(C)c2cnc(-c3ccccc3)nc21` [Example 106, 7,8-dihydro-7-methyl-8-oxo-2-phenyl-N,N-dipropyl-9H-purin-9-acetamide], at BZω3 receptor, the IC50 came to 1.2 nM. In series [1], the minimal effective dose fell in the range of 1 to 3 µg/kg. Further, the “Anti-convulsant effect ED25” value in series [2] was found to be 100000 µg/kg.

Take `CN(C(=O)Cn1c(=O)n(C)c2nc(-c3ccc(F)cc3)ncc21)c1ccccc1` [Example 5, 8,9-dihydro-2-(4-fluorophenyl)-9-methyl-N-methyl-8-oxo-N-phenyl-7H-purin-7-acetamide]: the melting point (as a rule, the temperature of the solid-liquid transition) lay in the range of 169 to 170 °C. In addition, at BZω3 receptor, the IC50 turned out to be 1.3 nM. The minimal effective dose in series [1] fell in the range of 1 to 3 µg/kg.

As to `CCN(C(=O)Cn1c(=O)n(C)c2nc(-c3ccc(F)cc3)ncc21)c1ccccc1` [Example 12, N-ethyl-8,9-dihydro-2-(4-fluorophenyl)-9-methyl-8-oxo-N-phenyl-7H-purin-7-acetamide], the melting point was in the range of 211 to 212 °C. For the same molecule, the IC50 at BZω3 receptor was 1.5 nM. Further, in series [1], the minimal effective dose worked out at 10 µg/kg.

`CCCN(CCC)C(=O)Cn1c(=O)n(CC)c2cnc(-c3ccccc3)nc21` [Example 107, 7-ethyl-7,8-dihydro-8-oxo-2-phenyl-N,N-dipropyl-9H-purin-9-acetamide] displayed a melting point of 98 to 99 °C. Further, at BZω3 receptor, the IC50 was 0.66 nM. Also, the minimal effective dose in series [1] was in the range of 1 to 3 µg/kg. The “Anti-convulsant effect ED25” value in series [2] was 33000 µg/kg.

In the case of `CN(C(=O)Cn1c(=O)n(C)c2nc(-c3ccccc3)ncc21)c1ccccc1` [Example 2, 8,9-dihydro-9-methyl-N-methyl-8-oxo-2-phenyl-N-phenyl-7H-purin-7-acetamide], the melting point is 147 to 148 °C. Further, the IC50 on BZω3 receptor was 1.2 nM. Moreover, in series [1], the minimal effective dose fell in the range of 1 to 3 µg/kg.

The molecule `CCN(Cc1ccccc1)C(=O)Cn1c(=O)n(C)c2cnc(-c3ccc(Cl)cc3)nc21` [Example 147, N-benzyl-N-ethyl-7,8-dihydro-7-methyl-8-oxo-2-(4-chlorophenyl)-9H-purin-9-acetamide] came in with a melting point of 172 to 173 °C. The IC50 on BZω3 receptor was 1.1 nM. Moreover, the minimal effective dose in series [1] lay in the range of 1 to 3 µg/kg.

`COc1ccc(N(C)C(=O)Cn2c(=O)n(C)c3cnc(-c4ccccc4)nc32)cc1` [Example 163] registered a melting point of 172 to 174 °C. Besides, the IC50 at BZω3 receptor was determined as 0.73 nM. Besides, in series [1], the minimal effective dose is 100 µg/kg.

Consider `CCCN(CCC)C(=O)Cn1c(=O)n(C)c2cnc(-c3ccc(Cl)cc3)nc21` [Example 112], for which the melting point was 135 to 137 °C. Further, the IC50 on BZω3 receptor amounted to 0.73 nM. For the same molecule, in series [2], the “Anti-convulsant effect ED25” value was 73600 µg/kg.

As to `CN(Cc1ccccc1)C(=O)Cn1c(=O)n(C)c2nc(-c3ccc(F)cc3)ncc21` [Example 50], the melting point lay in the range of 170 to 171 °C. Further, the IC50 on BZω3 receptor was 0.79 nM. The minimal effective dose in series [1] was found to be 100 µg/kg.
